The record followed here is ChEMBL document CHEMBL5104100, “Synthesis and Preclinical Characterization of LY3154885, a Human Dopamine D1 Receptor Positive Allosteric Modulator with an Improved Nonclinical Drug-Drug Interaction Risk Profile” (J Med Chem, 2022).

Structures are written as SMILES. Converted amounts (≈) assume the structure as drawn.

One data set has as its system Cytochrome P450. Description: Drug metabolism in human hepatocytes assessed as fraction of Cyp mediated oxidative metabolism in presence of NADPH. The data set is classed as ADME, cell-based, Hepatocyte.
Data set [1] has as its target T1, CYP3A4 (Homo sapiens, UniProt P08684). Description: Induction of CYP3A4 in human hepatocytes. The data set is classed as ADME, cell-based, Hepatocyte.
Data set [2] deals with T1, CYP3A4. In words: Induction of CYP3A4 in human hepatocytes assessed as maximum efficacy relative to control.
In a further data set the target is D(1A) dopamine receptor (Homo sapiens, UniProt P21728). Description: Positive allosteric modulation of human D1 receptor in HEK293 cells assessed as increase in cyclic AMP production measured after 60 mins in presence of dopamine by HTRF assay. The data set is classed as cell-based.
A short description of data set [3]: Solubility of compound at pH 6 by HTSA assay. The data set is classed as physicochemical. The settings on record: buffer.

Chain of D(1A) dopamine receptor (P21728 whole entry): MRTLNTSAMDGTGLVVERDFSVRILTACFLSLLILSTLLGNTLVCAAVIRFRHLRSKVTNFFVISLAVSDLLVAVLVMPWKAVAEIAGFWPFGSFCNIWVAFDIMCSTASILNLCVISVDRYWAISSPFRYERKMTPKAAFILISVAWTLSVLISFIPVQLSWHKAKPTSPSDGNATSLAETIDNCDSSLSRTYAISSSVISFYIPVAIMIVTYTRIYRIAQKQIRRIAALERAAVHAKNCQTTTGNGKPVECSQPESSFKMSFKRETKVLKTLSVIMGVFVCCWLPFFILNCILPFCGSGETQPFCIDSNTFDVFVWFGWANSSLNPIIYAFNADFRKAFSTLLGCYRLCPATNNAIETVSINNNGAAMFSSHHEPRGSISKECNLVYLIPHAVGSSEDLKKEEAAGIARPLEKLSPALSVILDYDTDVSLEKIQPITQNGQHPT
T1 sequence (P08684 whole entry): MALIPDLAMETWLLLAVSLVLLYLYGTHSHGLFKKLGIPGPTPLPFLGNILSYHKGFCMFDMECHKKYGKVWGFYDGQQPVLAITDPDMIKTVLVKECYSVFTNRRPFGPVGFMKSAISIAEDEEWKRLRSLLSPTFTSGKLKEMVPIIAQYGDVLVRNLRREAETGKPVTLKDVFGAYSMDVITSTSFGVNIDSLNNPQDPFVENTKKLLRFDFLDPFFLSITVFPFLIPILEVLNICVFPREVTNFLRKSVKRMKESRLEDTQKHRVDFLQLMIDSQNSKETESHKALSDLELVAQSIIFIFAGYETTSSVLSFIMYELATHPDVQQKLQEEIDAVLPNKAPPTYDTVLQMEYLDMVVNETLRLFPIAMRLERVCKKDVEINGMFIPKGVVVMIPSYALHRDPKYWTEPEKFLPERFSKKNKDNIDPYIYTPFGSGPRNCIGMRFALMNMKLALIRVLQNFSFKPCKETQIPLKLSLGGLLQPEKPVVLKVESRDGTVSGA

As to `C[C@H]1c2cccc(CCC(C)(C)O)c2C[C@H](CO)N1C(=O)Cc1c(Cl)cccc1Cl`, the Fm in the data set with Cytochrome P450 is 0.6. The molecule further registered a half-maximal effective concentration (EC50) on CYP3A4 [1] of 5500 nM. On CYP3A4 [2], the maximum response (Emax) worked out at 42%.

For the molecule `C[C@H]1c2cccc(-c3cn[nH]c3)c2C[C@H](CO)N1C(=O)Cc1c(Cl)cccc1Cl`, on D(1A) dopamine receptor, the EC50 came to 6.41 nM. The molecule further yielded a solubility in data set [3] of 27 µg/mL (≈ 62.7 µM).

Regarding `C[C@H]1c2cccc(-c3cnn(C4CC4)c3)c2C[C@H](CO)N1C(=O)Cc1c(Cl)cccc1Cl`, the EC50 at D(1A) dopamine receptor is 10.3 nM. In data set [3], this molecule gave a solubility of 2 µg/mL (≈ 4.25 µM).

In the case of `CCn1cc(-c2cccc3c2C[C@H](CO)N(C(=O)Cc2c(Cl)cccc2Cl)[C@H]3C)cn1`, the EC50 on D(1A) dopamine receptor was 15.9 nM. Further, the concentration in solution in data set [3] (solubility) was 12 µg/mL (≈ 26.2 µM).

`C[C@H]1c2cccc(-c3cnn(C4COC4)c3)c2C[C@H](CO)N1C(=O)Cc1c(Cl)cccc1Cl` had a solubility in data set [3] of 35 µg/mL (≈ 72 µM).

As usually defined, the EC50 is the concentration needed to bring the measured effect to its halfway point. As usually defined, the Emax is the size of the effect at its maximum, as opposed to the concentration needed. In general, solubility refers to the dissolved amount per volume that the medium holds.
